This is an account of results in patent publication US12503471B2, “Triazatricycle compounds for the treatment of autoimmune disease” (Hoffmann-La Roche Inc., priority 2019, dated 2025).

The target in this test is T1, human TLR7 (Homo sapiens, UniProt Q9NYK1).
T1 construct: host or cells: HEK293 (HEK-Blue hTLR7)
T1 sequence (Q9NYK1 27-1049): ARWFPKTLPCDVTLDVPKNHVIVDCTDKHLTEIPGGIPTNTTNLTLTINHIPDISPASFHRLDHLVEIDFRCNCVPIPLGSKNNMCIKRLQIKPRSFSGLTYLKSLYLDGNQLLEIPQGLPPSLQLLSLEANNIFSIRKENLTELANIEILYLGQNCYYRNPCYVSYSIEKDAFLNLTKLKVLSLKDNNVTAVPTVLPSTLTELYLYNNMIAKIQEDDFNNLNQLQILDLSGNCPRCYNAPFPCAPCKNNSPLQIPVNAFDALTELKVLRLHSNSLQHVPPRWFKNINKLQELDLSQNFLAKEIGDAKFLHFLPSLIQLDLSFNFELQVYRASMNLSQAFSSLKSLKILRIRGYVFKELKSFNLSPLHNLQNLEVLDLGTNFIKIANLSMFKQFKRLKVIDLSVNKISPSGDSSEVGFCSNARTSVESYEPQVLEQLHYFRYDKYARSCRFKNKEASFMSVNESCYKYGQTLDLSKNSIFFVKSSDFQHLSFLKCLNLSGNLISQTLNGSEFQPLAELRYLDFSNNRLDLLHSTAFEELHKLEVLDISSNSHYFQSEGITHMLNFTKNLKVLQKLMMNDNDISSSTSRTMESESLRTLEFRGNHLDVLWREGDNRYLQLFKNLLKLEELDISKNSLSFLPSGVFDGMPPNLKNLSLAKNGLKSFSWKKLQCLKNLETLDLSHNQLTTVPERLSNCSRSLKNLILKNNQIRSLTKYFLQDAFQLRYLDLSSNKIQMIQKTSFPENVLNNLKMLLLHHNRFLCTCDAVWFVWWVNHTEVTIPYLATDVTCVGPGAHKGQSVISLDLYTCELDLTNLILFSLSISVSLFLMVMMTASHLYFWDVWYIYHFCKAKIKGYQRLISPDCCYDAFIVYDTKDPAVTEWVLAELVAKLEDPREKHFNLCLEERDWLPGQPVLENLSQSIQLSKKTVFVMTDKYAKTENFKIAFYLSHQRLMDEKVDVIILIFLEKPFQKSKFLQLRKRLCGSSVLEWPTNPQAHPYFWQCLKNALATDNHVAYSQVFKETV
The test is described as follows: HEK293-Blue-hTLR-7 cells assay. Type of test: cell-based. The settings on record: HEK293-Blue-hTLR7 cells, R848 stimulation, 20 hrs, SEAP reporter; read-out: HEK/hTLR7 IC50. The text has this: HEK293-Blue-hTLR-7 Cells Assay:
A stable HEK293-Blue-hTLR-7 cell line was purchased from InvivoGen (Cat. #: hkb-htlr7, San Diego, Calif., USA). These cells were originally designed for studying the stimulation of human TLR7 by monitoring the activation of NF-κB. A SEAP (secreted embryonic alkaline phosphatase) reporter gene was placed under the control of the IFN-β minimal promoter fused to five NF-κB and AP-1-binding sites. The SEAP was induced by activating NF-κB and AP-1 via stimulating HEK-Blue hTLR7 cells with TLR7 ligands. Therefore the reporter expression was declined by TLR7 antagonist under the stimulation of a ligand, such as R848 (Resiquimod), for incubation of 20 hrs. The cell culture supernatant SEAP reporter activity was determined using QUANTI-Blue™ kit (Cat. #: rep-qbl, Invivogen, San Diego, Ca, USA) at a wavelength of 640 nm, a detection medium that turns purple or blue in the presence of alkaline phosphatase.
HEK293-Blue-hTLR7 cells were incubated at a density of 250,000˜450,000 cells/mL in a volume of 170 μL in a 96-well plate in Dulbecco's Modified Eagle's medium (DMEM) containing 4.5 g/L glucose, 50 U/mL penicillin, […], […], 2 mM L-glutamine, 10% (v/v) heat-inactivated fetal bovine serum with addition of 20 μL test compound in a serial dilution in the presence of final DMSO at 1% and 10 μL of 20 uM R848 in above DMEM, perform incubation under 37° C. in a CO2 incubator for 20 hrs. Then 20 μL of the supernatant from each well was incubated with 180 μL Quanti-blue substrate solution at 37° C. for 2 hrs and the absorbance was read at 620-655 nm using a spectrophotometer. The signaling pathway that TLR7 activation leads to downstream NF-κB activation has been widely accepted, and therefore similar reporter assay was modified for evaluating TLR7 antagonist.
On to `[2H]c1ccc2c(N3C[C@@H](C)N4Cc5nc(N6CCC7(CC6)CNCCO7)ccc5[C@H]4C3)ccc(C#N)c2n1` [Example 18, 2-Deuterio-5-[(2S,6R)-6-methyl-11-(1-oxa-4,9-diazaspiro[5.5]undecan-9-yl)-4,7,10-triazatricyclo[7.4.0.02,7]trideca-1(9),10,12-trien-4-yl]quinoline-8-carbonitrile], for which the IC50 stood at 1.3 nM. For `[2H]c1ccc2c(N3C[C@@H](C)N4Cc5nc(N6CC[C@@H](OC)[C@H](N)C6)ccc5[C@H]4C3)ccc(C#N)c2n1` [Example 15, 5-[(2S,6R)-11-[(3R,4R)-3-amino-4-methoxy-1-piperidyl]-6-methyl-4,7,10-triazatricyclo[7.4.0.02,7]trideca-1(9),10,12-trien-4-yl]-2-deuterio-quinoline-8-carbonitrile] the value was 2.6 nM. For `[2H]c1ccc2c(N3C[C@@H](C)N4Cc5nc(N6CC[C@](C)(N)C6)ccc5[C@H]4C3)ccc(C#N)c2n1` [Example 8, 5-[(2S,6R)-11-[(3S)-3-amino-3-methyl-pyrrolidin-1-yl]-6-methyl-4,7,10-triazatricyclo[7.4.0.02,7]trideca-1(9),10,12-trien-4-yl]-2-deuterio-quinoline-8-carbonitrile] the value was 1.3 nM.

On to `[2H]c1ccc2c(N3C[C@@H](C)N4Cc5nc(N6CCC7(CNC7)C6)ccc5[C@H]4C3)ccc(C#N)c2n1` [Example 9, 2-Deuterio-5-[(2S,6R)-11-(2,6-diazaspiro[3.4]octan-6-yl)-6-methyl-4,7,10-triazatricyclo[7.4.0.02,7]trideca-1(9),10,12-trien-4-yl]quinoline-8-carbonitrile], for which the IC50 was found to be 6.5 nM. With `[2H]c1ccc2c(N3C[C@@H](C)N4Cc5nc(N6CC[C@H](N)[C@H](OC)C6)ccc5[C@H]4C3)ccc(C#N)c2n1` [Example 13, 5-[(2S,6R)-11-[(3R,4S)-4-amino-3-methoxy-1-piperidyl]-6-methyl-4,7,10-triazatricyclo[7.4.0.02,7]trideca-1(9),10,12-trien-4-yl]-2-deuterio-quinoline-8-carbonitrile], the IC50 was found to be 1.7 nM. Consider `C[C@@H]1CN(c2ccc(C#N)c3ncccc23)C[C@@H]2c3ccc(N4CCNCC4)nc3CN12` [Example 5, 5-[(2S,6R)-6-methyl-11-piperazin-1-yl-4,7,10-triazatricyclo[7.4.0.02,7]trideca-1(9),10,12-trien-4-yl]quinoline-8-carbonitrile], for which the IC50 worked out at 0.9 nM.

Consider `[2H]c1ccc2c(N3C[C@@H](C)N4Cc5nc(N6C[C@@H]7C[C@H]6CN7)ccc5[C@H]4C3)ccc(C#N)c2n1` [Example 16, 2-Deuterio-5-[(2S,6R)-11-[(1S,4S)-2,5-diazabicyclo[2.2.1]heptan-2-yl]-6-methyl-4,7,10-triazatricyclo[7.4.0.02,7]trideca-1(9),10,12-trien-4-yl]quinoline-8-carbonitrile], for which the IC50 was 1.7 nM. `[2H]c1ccc2c(N3C[C@@H](C)N4Cc5nc(N6C[C@H]7C[C@@H]6CN7)ccc5[C@H]4C3)ccc(C#N)c2n1` [Example 17, 2-Deuterio-5-[(2S,6R)-11-[(1R,4R)-2,5-diazabicyclo[2.2.1]heptan-2-yl]-6-methyl-4,7,10-triazatricyclo[7.4.0.02,7]trideca-1(9),10,12-trien-4-yl]quinoline-8-carbonitrile]: the IC50 is 2.7 nM. To `CC1(N)CCN(c2ccc3c(n2)CN2CCN(c4ccc(C#N)c5ncccc45)C[C@@H]32)CC1` [Example 4A, 5-[(2R)-11-(4-amino-4-methyl-1-piperidyl)-4,7,10-triazatricyclo[7.4.0.02,7]trideca-1(9),10,12-trien-4-yl]quinoline-8-carbonitrile] belongs 8.7 nM; to `C[C@@H]1CN(c2ccc(C#N)c3ncccc23)C[C@@H]2c3ccc(N4CC5CNCC(C4)O5)nc3CN12` [Example 6, 5-[(2S,6R)-6-methyl-11-(9-oxa-3,7-diazabicyclo[3.3.1]nonan-3-yl)-4,7,10-triazatricyclo[7.4.0.02,7]trideca-1(9),10,12-trien-4-yl]quinoline-8-carbonitrile], 4.9 nM. For `N#Cc1ccc(N2CCN3Cc4nc(N5CCNCC5)ccc4[C@@H]3C2)c2cccnc12` [Example 3A, 5-[(2R)-11-piperazin-1-yl-4,7,10-triazatricyclo[7.4.0.02,7]trideca-1(9),10,12-trien-4-yl]quinoline-8-carbonitrile] the value was 14.8 nM; for `[2H]c1ccc2c(N3C[C@@H](C)N4Cc5nc(O[C@H]6CCNC6)ccc5[C@H]4C3)ccc(C#N)c2n1` [Example 25, 2-Deuterio-5-[(2S,6R)-6-methyl-11-[(3S)-pyrrolidin-3-yl]oxy-4,7,10-triazatricyclo[7.4.0.02,7]trideca-1(9),10,12-trien-4-yl]quinoline-8-carbonitrile], 1 nM; for `[2H]c1ccc2c(N3C[C@@H](C)N4Cc5nc(N6CC[C@@H](N)[C@H](OC)C6)ccc5[C@H]4C3)ccc(C#N)c2n1` [Example 11, 5-[(2S,6R)-11-[(3R,4R)-4-amino-3-methoxy-1-piperidyl]-6-methyl-4,7,10-triazatricyclo[7.4.0.02,7]trideca-1(9),10,12-trien-4-yl]-2-deuterio-quinoline-8-carbonitrile], 3.7 nM.

With `C[C@@H]1CN(c2ccc(C#N)n3nccc23)C[C@@H]2c3ccc(N4C[C@@H]5C[C@H]4CN5)nc3CN12` [Example 21, 4-[(2S,6R)-11-[(1S,4S)-2,5-diazabicyclo[2.2.1]heptan-2-yl]-6-methyl-4,7,10-triazatricyclo[7.4.0.02,7]trideca-1(9),10,12-trien-4-yl]pyrazolo[1,5-a]pyridine-7-carbonitrile], the IC50 was found to be 7 nM. For `[2H]c1ccc2c(N3C[C@@H](C)N4Cc5nc(C6CCNCC6)ccc5[C@H]4C3)ccc(C#N)c2n1` [Example 23, 2-Deuterio-5-[(2S,6R)-6-methyl-11-(4-piperidyl)-4,7,10-triazatricyclo[7.4.0.02,7]trideca-1(9),10,12-trien-4-yl]quinoline-8-carbonitrile] the value was 1.7 nM; for `C[C@@H]1CN(c2ccc(C#N)c3ncccc23)C[C@@H]2c3cnc(N4CCNCC4)cc3CN12` [Example 2, 5-[(2S,6R)-6-methyl-11-piperazin-1-yl-4,7,12-triazatricyclo[7.4.0.02,7]trideca-1(9),10,12-trien-4-yl] quinoline-8-carbonitrile], 3.1 nM; for `[2H]c1ccc2c(N3C[C@@H](C)N4Cc5nc(OC6CCNCC6)ccc5[C@H]4C3)ccc(C#N)c2n1` [Example 24, 2-Deuterio-5-[(2S,6R)-6-methyl-11-(4-piperidyloxy)-4,7,10-triazatricyclo[7.4.0.02,7]trideca-1(9),10,12-trien-4-yl]quinoline-8-carbonitrile], 1 nM.

For `C[C@@H]1CN(c2ccc(C#N)c3ncccc23)C[C@@H]2c3ccc(N4CCCNCC4)nc3CN12` [Example 20, 5-[(2S,6R)-11-(1,4-diazepan-1-yl)-6-methyl-4,7,10-triazatricyclo[7.4.0.02,7]trideca-1(9),10,12-trien-4-yl]quinoline-8-carbonitrile], the IC50 is 2 nM.
